The text below walks through data of patent US9738649B2 (priority 2006, dated 2017).

This assay addresses rat TRPV1 (Rattus norvegicus (Rat), UniProt O35433). The following applies: read-out: Rat IC50.

The structures appear in SMILES notation. Structures can show the parent of a compound that is named as a salt.

Sequence of rat TRPV1 (O35433 whole entry): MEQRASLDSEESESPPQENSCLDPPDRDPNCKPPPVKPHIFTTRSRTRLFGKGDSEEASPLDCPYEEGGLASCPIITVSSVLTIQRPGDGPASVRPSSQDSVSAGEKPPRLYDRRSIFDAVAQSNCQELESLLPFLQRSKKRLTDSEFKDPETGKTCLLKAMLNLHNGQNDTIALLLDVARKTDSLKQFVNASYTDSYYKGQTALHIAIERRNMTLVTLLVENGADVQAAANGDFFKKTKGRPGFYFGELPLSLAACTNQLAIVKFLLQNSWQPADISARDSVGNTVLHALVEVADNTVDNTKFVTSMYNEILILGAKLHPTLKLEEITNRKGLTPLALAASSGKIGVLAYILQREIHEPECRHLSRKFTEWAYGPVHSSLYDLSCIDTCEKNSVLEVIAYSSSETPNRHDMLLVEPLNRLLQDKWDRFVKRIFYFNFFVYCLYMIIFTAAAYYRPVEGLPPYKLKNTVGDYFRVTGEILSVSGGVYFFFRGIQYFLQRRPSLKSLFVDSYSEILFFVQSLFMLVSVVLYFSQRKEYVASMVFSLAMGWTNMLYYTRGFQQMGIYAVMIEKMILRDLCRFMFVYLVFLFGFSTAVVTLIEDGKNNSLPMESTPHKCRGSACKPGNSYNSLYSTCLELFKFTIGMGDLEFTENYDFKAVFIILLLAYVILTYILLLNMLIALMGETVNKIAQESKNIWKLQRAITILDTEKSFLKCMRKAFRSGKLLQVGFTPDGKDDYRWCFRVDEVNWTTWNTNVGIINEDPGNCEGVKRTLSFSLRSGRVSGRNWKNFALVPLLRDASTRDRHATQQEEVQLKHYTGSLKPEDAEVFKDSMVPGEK
Procedure: Biological Testing: Functional Assay: Block of Capsaicin-Induced Ca^2+ Influx A. Human Assay
Cells were passaged frequently, every 3-5 days, to avoid overgrowth, depletion of essential medium components, or acidic medium exposure. Cells were passaged using a brief wash in 0.05% trypsin with 1 mM EDTA, followed by dissociation in divalent-free phosphate-buffered saline (Hyclone #SH30028.02). […] The assay buffer was composed of 130 mM NaCl, 2 mM KCl, 2 mM MgCl2, 10 mM HEPES, 5 mM glucose, and either 2 mM or 20 μM CaCl2. On the day of the experiment, the culture medium was replaced with 2 mM calcium assay buffer using an automated plate washer (ELx405; Biotek, VT). […] After loading the cells, the dye solution was replaced with 50 μL/well of 20 μM calcium assay buffer using the ELx405 plate washer. Test compounds (50 μL/well) were added to the plate and incubated for 30 min. […] The IC50 values were determined. […] The contents of the wells were mixed 3 times (40 μL mix volume) immediately after the additions were made. Concentration dependence of block was determined by exposing each well of cells in duplicate rows of a 96 well plate to a serial dilution of test compound. The concentration series usually started at 10 μM with a three-fold serial decrement in concentration. The magnitude of the capsaicin response was determined by measuring the change in fluo3 fluorescence before and 100 seconds after the addition of the agonist. Data were analyzed using a non-linear regression program (Origin; OriginLab, MA). IC50 values shown are the average (mean) of the results obtained.
The assay was performed as described above, using HEK293 cells transfected with rat TRPV1 (rTRPV1/HEK293). […] IC50 values shown are the average (mean) of the results obtained.

Turning to `CN(C)c1nc2c(c(Nc3ccc(C(F)(F)F)nc3)n1)CCN(c1ncccc1C(F)(F)F)CC2` [Example 43B, N^2,N^2-Dimethyl-N^4-(6-trifluoromethyl-pyridin-3-yl)-7-(3-trifluoro-methyl-pyridin-2-yl)-6,7,8,9-tetrahydro-5H-pyrimido[4,5-d]azepine-2,4-diamine trifluoroacetic acid salt], the IC50 came to 390 nM.

As for `O=C(O)C1CCN(c2nc3c(c(Nc4ccc(C(F)(F)F)cc4)n2)CCN(c2ncccc2C(F)(F)F)CC3)CC1` [Example 57B, 1-[4-(4-Trifluoromethyl-phenylamino)-7-(3-trifluoromethyl-pyridin-2-yl)-6,7,8,9-tetrahydro-5H-pyrimido[4,5-d]azepin-2-yl]-piperidine-4-carboxylic acid trifluoroacetic acid salt], the IC50 was determined as 5500 nM.

On to `FC(F)(F)c1ccc(Nc2nc(NCCN3CCCCC3)nc3c2CCN(c2ncccc2C(F)(F)F)CC3)cc1` [Example 58B, N^2-(2-Piperidin-1-yl-ethyl)-N^4-(4-trifluoromethyl-phenyl)-7-(3-trifluoro-methyl-pyridin-2-yl)-6,7,8,9-tetrahydro-5H-pyrimido[4,5-d]azepine-2,4-diamine trifluoroacetic acid salt], for which the IC50 was 1500 nM.

As for `FC(F)(F)c1ccc(Nc2nc(NC3CCOCC3)nc3c2CCN(c2ncccc2C(F)(F)F)CC3)cc1` [Example 61B, N^2-(Tetrahydro-pyran-4-yl)-N^4-(4-trifluoromethyl-phenyl)-7-(3-trifluoro-methyl-pyridin-2-yl)-6,7,8,9-tetrahydro-5H-pyrimido[4,5-d]azepine-2,4-diamine trifluoroacetic acid salt], the IC50 stood at 230 nM.

As to `CN(C)c1nc2c(c(NCc3ccc(Cl)c(Cl)c3)n1)CCN(c1ncccc1C(F)(F)F)CC2` [Example 73B, N^4-(3,4-Dichloro-benzyl)-N^2,N^2-dimethyl-7-(3-trifluoromethyl-pyridin-2-yl)-6,7,8,9-tetrahydro-5H-pyrimido[4,5-d]azepine-2,4-diamine trifluoroacetic acid salt], the IC50 stood at 6700 nM.
